Patent US11136283B2, “Recovering and purifying resveratrol produced by microbial fermentation” (EVOLVA SA, priority 2017, dated 2021)
Several values for one entry are separate records, joined by “and”; a condition that tells them apart may be missing. Equal values may be shown once.

Assay: Stability of resveratrol in ultrafiltration filtrates concentrated by reverse osmosis and held at pH 11
Format: physicochemical
Settings: held at pH 11 for 3 to 7 days at 5° C. to 8° C., at production vs 7 days after
Method: It is advantageous for process intermediate materials to have a high degree of stability, so that they can be processed over time without the need for immediate processing on equipment with high capacity. The various filtrates from the ultrafiltration tests were concentrated by reverse osmosis and held at pH 11 for 3 to 7 days at 5° C. to 8° C. to evaluate their stability. The product decomposition is a comparison between the composition at the time of production and that measured 7 days after production. The stability improved monotonically as the molecular weight cutoff of the ultrafilter was decreased from 100 kDa to 25 kDa to 5 kDa. 11%, 7%, and 5% of the resveratrol was decomposed in the respective tests.

- Product Decomposition (filtrate from GR40PP 100 kDa ultrafilter, broth EFSC4687): 11.5%
- Product Decomposition (filtrate from GR40PP 100 kDa ultrafilter, broth EFSC 21811): 11% and 10.7%
- Product Decomposition (filtrate from GR60PP 25 kDa ultrafilter): 7%
- Product Decomposition (filtrate from GR90PP 5 kDa ultrafilter): 5%
SMILES: Oc1ccc(/C=C/c2cc(O)cc(O)c2)cc1 [resveratrol, 3,5,4′-trihydroxy-trans-stilbene]
